Laboratory results: patent publication US8592581B2, “Trisubstituted purine derivatives” (Cyclacel Limited, priority 2007, dated 2013)
Read-outs that look alike come from different tables or passages of the source.

Experiments:
[1] = target: CDK9/cyclin T1 (Homo sapiens (Human), UniProt P50750); assay: In-vitro recombinant kinase assay CDK9/cyclin T1; assay type: biochemical; conditions: Table 2; average of duplicate points
Method: (§1) To evaluate the in-vitro kinase potency of the compounds, they were screened against CDK 2 and CDK9. Kinase assays were performed in 96-well plates using recombinant CDK/cyclins generated at Cyclacel. Ltd Dundee, UK. CDK2 and CDK9 assays were performed in a total volume of 25 μl in assay buffer (25 mM b-glycerophosphate, 20 mM MOPS, 5 mM EGTA, 1 mM DTT and 1 mM NaVO3, pH 7.4), into which were added 2-4 μg of active enzyme with appropriate substrates (purified histone H1 for CDK2/cyclin E, and CDK2/cyclin A, biotinyl-Ahx-(YSPTSPS)4 for CDK9/cyclin T1). […] CDK2 reactions were stopped by addition of 25 μl of 75 mM phosphoric acid, followed by filtration through P81 filterplates (Whatman Polyfiltronics, Kent, UK). For CDK9, the reaction was stopped by addition of 25 μl of 75 mM phosphoric acid, then 5 μl of 10 mg/ml avidin was added to each well and further incubated for 2 min followed by filtration as per CDK2 assay. After washing 3 times with 75 mM orthophosphoric acid, plates were dried, scintillant added and incorporated radioactivity measured in a scintillation counter (TopCount, Packard Instruments, Pangbourne, Berks, UK). Compounds for kinase assay were made up as 10 mM stocks in DMSO and diluted into 10% DMSO in assay buffer.
as §1

[2] = system: H460 non-small cell lung cancer (NSCLC) cell line; assay: Alamar blue cytotoxicity assay in H460 NSCLC tumour cell line; assay type: cell-based; conditions: for Fold increase in potency: H460 cellular IC50 compared with seliciclib; for IC50: Homo sapiens, NCI-H460, 72 h, H460 cells, 72 hours, average of three independent experiments
Method: In order to determine the cellular potency of the compounds, the cytotoxicity of each compound was determined against the H460 non-small cell lung cancer (NSCLC) cell line. Standard cytotoxicity methods were performed as follows: H460 cells were seeded in 96-well plates appropriately for their doubling time (3000 cells per well) in RPMI media containing 10% FCS and incubated overnight at 37° C., 5% CO2. The media was removed and 100 μl fresh media containing increasing concentrations of appropriate compound was added and the cells incubated for 72 hours at 37° C., 5% CO2. A 10% stock of alamar blue (Roche, Lewes, United Kingdom) was prepared in medium and 100 μl added to the cells which were incubated for 2 hours.

[3] = target: CDK2/cyclin A (Homo sapiens (Human), UniProt P24941); assay: In-vitro recombinant kinase assay CDK2/cyclin A; assay type: biochemical
Method: as §1, §1

[4] = target: CDK2/cyclin E (Homo sapiens (Human), UniProt P24941); assay: In-vitro recombinant kinase assay CDK2/cyclin E; assay type: biochemical
Method: as §1, §1

[5] = target: CDK1B (Homo sapiens (Human), UniProt P06493); assay: In-vitro kinase assay screen CDK1B (Table 4); assay type: biochemical
[6] = target: T1, CYP2C9 (Homo sapiens (Human), UniProt P11712); assay: Cytochrome P450 substrate identification (Bactosomes) CYP2C9; assay type: in vitro ADME; conditions: pH 7.4, 5 μM test compound, up to 45 min, read-out: half life in the presence of CYP2C9
Method: (§2) cDNA expressed human CYP450 enzyme preparations co-expressed with human NADPH cytochrome P450 reductase (Bactosomes™) were supplied by Cypex Ltd. Bactosomes™ (final P450 concentration CYP1A2 100 pmol/mL, CYP2C8 50 pmol/mL, CYP2C9 25 pmol/mL, CYP2C19 100 pmol/mL, CYP2D6 50 pmol/mL and CYP3A4 25 pmol/mL), 0.1M phosphate buffer pH7.4 and test compound (final substrate concentration=5 μM; final DMSO concentration=0.25%) were pre-incubated at 37° C. prior to the addition of NADPH (final concentration=1 mM) to initiate the reaction. Incubations were also performed using control bactosomes (no P450 enzymes present) to reveal any non-enzymatic degradation. The final incubation volume was 25 μL. Compounds known to be metabolised specifically by each CYP450 isoform were used as control compounds.
(§3) Each compound was incubated singly for 0, 5, 15, 30 and 45 min with each CYP isoform. The reactions were stopped by the addition of 50 μL methanol containing internal standard at the appropriate time points. The incubation plates were centrifuged at 2500 rpm for 20 min at 4° C. to precipitate the protein. Following protein precipitation, the sample supernatants were combined in cassettes of up to four compounds and analysed using generic LC-MS/MS conditions.
(§4) The In peak area ratio (which has been corrected for any loss in the incubations with the control bactosomes) was plotted against time and the gradient of the line determined.
(§5) The elimination rate constant (k)=(−gradient)

[7] = target: T2, CYP2D6 (Homo sapiens (Human), UniProt P10635); assay: CYP2D6 inhibition, human liver microsomes, dextromethorphan; assay type: in vitro ADME
Method: (§6) Six test compound concentrations (0.05, 0.25, 0.5, 2.5, 5, 25 μM in DMSO; final DMSO concentration=0.25%) were incubated with human liver microsomes (0.5 mg/mL) and NADPH (1 mM) in the presence of the probe substrate dextromethorphan (5 μM) for 30 min at 37° C. The selective CYP2D6 inhibitor, quinidine, was screened alongside the test compounds as a positive control.
(§7) For the CYP1A incubations, the reactions were terminated by the addition of methanol, and the formation of the metabolite, resorufin, was monitored by fluorescence (excitation wavelength=535 nm, emission wavelength=595 nm). For the CYP2C9, CYP2C19, CYP2D6, and CYP3A4 incubations, the reactions were terminated by the addition of methanol containing internal standard. The samples were then centrifuged, and the supernatants were combined, for the simultaneous analysis of 4-hydroxytolbutamide, 4-hydroxymephenyloin, dextrorphan, and 1-hydroxymidazolam plus internal standard by LC-MS/MS using generic LC-MS/MS conditions. Formic acid in deionised water (final concentration=0.1%) was added to the final sample prior to analysis.

[8] = target: T1, CYP2C9; assay: CYP2C9 inhibition, human liver microsomes, tolbutamide; assay type: in vitro ADME
Method: as §6, with “(1” for “(0.5”, “tolbutamide (120” for “dextromethorphan (5”, “60” for “30”, “CYP2C9” for “CYP2D6”, “sulphaphenazole,” for “quinidine,”
as §7

[9] = target: T3, CYP3A4 (Homo sapiens (Human), UniProt P08684); assay: CYP3A4 inhibition, human liver microsomes, midazolam; assay type: in vitro ADME; conditions: human liver microsomes
Method: as §6, with “concentration 0.26%)” for “concentration=0.25%)”, “(0.25” for “(0.5”, “midazolam (2.5” for “dextromethorphan (5”, “5” for “30”, “CYP3A4” for “CYP2D6”, “ketoconazole,” for “quinidine,”
as §7

[10] = target: CYP1A (Homo sapiens, UniProt P05177); assay: CYP1A inhibition, human liver microsomes, ethoxyresorufin; assay type: in vitro ADME
Method: as §6, with “concentration=0.35%)” for “concentration=0.25%)”, “(0.25” for “(0.5”, “ethoxyresorufin (0.5” for “dextromethorphan (5”, “5” for “30”, “CYP1A” for “CYP2D6”, “alpha-naphthoflavone,” for “quinidine,”
as §7

[11] = target: T4, CYP2C19 (Homo sapiens (Human), UniProt P33261); assay: Cytochrome P450 substrate identification (Bactosomes) CYP2C19; assay type: in vitro ADME; conditions: pH 7.4, 5 μM test compound, up to 45 min, read-out: half life in the presence of CYP2C19
Method: as §2, §3, §4, §5

[12] = target: T3, CYP3A4; assay: Cytochrome P450 substrate identification (Bactosomes) CYP3A4; assay type: in vitro ADME; conditions: human, pH 7.4; Bactosomes, 5 μM test compound, up to 45 min; read-out: half life in the presence of CYP3A4
Method: as §2, §3, §4, §5

[13] = target: T4, CYP2C19; assay: CYP2C19 inhibition, human liver microsomes, mephenyloin; assay type: in vitro ADME
Method: as §6, with “mephenyloin (25” for “dextromethorphan (5”, “60” for “30”, “CYP2C19” for “CYP2D6”, “tranylcypromine,” for “quinidine,”
as §7

[14] = target: CYP2C8 (Homo sapiens (Human), UniProt P10632); assay: Cytochrome P450 substrate identification (Bactosomes) CYP2C8; assay type: in vitro ADME; conditions: pH 7.4, 5 μM test compound, up to 45 min, read-out: half life in the presence of CYP2C8
Method: as §2, §3, §4, §5

[15] = target: T2, CYP2D6; assay: Cytochrome P450 substrate identification (Bactosomes) CYP2D6; assay type: in vitro ADME; conditions: pH 7.4, 5 μM test compound, up to 45 min, read-out: half life in the presence of CYP2D6
Method: as §2, §3, §4, §5

[16] = Table 2, average of duplicate points, read-out: CDK2/Cyclin A Average IC50
[17] = Table 2, average of duplicate points, read-out: CDK2/Cyclin E Average IC50
[18] = Table 4, Run 1, read-out: CDK2A Run 1
[19] = Table 4, Run 2, read-out: CDK2A Run 2
[20] = Table 4, Run 1, read-out: CDK1B Run 1
[21] = Table 4, Run 2, read-out: CDK1B Run 2
[22] = Table 4, mean of two runs, read-out: CDK1B Mean
[23] = Table 4, Run 1, read-out: CDK2E Run 1
[24] = Table 4, Run 2, read-out: CDK2E Run 2
[25] = Table 4, mean of two runs, read-out: CDK2E Mean

Sequence of CYP2C8 (P10632 whole entry): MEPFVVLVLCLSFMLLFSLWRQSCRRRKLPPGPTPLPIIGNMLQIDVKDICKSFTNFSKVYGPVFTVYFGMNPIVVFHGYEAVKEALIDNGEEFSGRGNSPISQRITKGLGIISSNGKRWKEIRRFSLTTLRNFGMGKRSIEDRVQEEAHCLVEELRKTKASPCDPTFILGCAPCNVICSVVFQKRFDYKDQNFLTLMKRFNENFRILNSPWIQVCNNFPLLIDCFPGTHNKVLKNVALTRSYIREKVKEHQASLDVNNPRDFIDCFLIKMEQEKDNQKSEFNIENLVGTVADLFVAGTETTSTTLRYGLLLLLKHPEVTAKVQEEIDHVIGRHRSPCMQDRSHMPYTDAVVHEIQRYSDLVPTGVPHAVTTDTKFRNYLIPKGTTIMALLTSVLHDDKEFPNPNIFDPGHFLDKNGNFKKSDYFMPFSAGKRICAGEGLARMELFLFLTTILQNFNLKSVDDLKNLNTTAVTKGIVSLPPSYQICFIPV
T4 sequence (P33261 whole entry): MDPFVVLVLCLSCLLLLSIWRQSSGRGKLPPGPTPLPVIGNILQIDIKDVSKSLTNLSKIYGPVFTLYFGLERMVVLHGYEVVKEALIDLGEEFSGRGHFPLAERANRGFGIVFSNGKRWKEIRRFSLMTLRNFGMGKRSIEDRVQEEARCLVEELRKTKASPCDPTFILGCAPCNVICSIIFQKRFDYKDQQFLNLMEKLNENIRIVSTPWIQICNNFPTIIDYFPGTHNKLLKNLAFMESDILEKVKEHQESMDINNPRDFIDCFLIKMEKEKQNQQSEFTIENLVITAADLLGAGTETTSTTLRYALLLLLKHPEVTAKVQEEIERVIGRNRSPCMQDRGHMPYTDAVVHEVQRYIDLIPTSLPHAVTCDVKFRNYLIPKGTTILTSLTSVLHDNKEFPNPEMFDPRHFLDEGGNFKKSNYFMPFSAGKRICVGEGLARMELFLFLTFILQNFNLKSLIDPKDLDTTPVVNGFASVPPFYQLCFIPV
Sequence of CYP1A (P05177 2-516 limits assumed): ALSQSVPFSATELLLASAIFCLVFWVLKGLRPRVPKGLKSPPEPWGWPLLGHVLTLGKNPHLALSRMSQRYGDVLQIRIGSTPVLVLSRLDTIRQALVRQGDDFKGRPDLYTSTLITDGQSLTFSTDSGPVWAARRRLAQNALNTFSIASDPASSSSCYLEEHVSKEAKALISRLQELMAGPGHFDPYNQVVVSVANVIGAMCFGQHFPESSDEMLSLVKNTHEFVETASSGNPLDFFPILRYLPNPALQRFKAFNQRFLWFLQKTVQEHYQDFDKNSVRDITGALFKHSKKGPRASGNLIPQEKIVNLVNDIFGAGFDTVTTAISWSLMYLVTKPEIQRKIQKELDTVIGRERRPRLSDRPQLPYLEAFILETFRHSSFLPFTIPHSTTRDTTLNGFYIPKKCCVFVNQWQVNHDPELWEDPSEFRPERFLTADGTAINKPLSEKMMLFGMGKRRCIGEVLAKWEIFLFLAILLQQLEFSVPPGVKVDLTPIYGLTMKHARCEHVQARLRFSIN
Sequence of CDK1B (P06493 whole entry): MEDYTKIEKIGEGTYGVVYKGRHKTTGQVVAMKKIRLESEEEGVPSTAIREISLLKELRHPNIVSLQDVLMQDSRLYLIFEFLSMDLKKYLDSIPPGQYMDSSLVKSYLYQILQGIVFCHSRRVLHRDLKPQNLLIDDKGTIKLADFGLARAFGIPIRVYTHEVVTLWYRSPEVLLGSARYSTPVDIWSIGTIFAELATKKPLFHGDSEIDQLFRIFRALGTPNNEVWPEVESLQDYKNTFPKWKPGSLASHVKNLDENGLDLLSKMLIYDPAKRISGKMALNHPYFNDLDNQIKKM
Sequence of CDK1B (P14635 whole entry partner): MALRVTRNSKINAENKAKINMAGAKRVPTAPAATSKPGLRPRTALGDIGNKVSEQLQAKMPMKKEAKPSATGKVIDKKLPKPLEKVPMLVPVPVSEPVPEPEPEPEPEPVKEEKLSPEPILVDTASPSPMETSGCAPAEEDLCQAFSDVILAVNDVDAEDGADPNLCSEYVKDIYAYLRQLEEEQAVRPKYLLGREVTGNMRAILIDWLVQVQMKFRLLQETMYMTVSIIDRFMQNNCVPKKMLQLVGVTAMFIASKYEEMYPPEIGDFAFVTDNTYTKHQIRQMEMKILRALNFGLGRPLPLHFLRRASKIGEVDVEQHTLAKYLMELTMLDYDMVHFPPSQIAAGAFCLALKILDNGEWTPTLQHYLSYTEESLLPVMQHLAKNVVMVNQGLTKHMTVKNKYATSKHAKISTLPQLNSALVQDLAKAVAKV
T3 sequence (P08684 whole entry): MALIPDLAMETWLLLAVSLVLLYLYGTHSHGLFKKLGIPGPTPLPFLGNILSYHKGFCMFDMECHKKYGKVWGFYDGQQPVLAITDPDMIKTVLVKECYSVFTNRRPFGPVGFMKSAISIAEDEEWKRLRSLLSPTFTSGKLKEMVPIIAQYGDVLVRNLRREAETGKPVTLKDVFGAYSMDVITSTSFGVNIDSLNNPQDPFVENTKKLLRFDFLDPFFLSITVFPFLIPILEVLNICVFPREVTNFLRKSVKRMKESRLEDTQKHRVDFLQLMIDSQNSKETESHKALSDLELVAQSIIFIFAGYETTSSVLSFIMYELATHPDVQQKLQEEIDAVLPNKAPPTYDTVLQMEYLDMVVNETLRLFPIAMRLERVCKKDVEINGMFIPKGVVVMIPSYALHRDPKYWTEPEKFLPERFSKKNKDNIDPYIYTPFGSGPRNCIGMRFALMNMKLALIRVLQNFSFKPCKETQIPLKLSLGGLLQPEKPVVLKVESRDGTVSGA
Sequence of CDK9/cyclin T1 (P50750 whole entry, species assumed): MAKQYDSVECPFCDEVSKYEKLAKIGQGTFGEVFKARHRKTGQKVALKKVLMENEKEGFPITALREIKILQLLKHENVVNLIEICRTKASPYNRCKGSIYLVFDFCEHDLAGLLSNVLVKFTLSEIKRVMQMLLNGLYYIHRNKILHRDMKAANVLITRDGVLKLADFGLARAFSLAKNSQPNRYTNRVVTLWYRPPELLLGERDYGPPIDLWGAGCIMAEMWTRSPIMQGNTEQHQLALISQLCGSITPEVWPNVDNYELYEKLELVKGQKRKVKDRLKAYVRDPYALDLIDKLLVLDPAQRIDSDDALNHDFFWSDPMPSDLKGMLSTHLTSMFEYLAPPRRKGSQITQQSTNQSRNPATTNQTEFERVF
Sequence of CDK9/cyclin T1 (O60563 whole entry partner, species assumed): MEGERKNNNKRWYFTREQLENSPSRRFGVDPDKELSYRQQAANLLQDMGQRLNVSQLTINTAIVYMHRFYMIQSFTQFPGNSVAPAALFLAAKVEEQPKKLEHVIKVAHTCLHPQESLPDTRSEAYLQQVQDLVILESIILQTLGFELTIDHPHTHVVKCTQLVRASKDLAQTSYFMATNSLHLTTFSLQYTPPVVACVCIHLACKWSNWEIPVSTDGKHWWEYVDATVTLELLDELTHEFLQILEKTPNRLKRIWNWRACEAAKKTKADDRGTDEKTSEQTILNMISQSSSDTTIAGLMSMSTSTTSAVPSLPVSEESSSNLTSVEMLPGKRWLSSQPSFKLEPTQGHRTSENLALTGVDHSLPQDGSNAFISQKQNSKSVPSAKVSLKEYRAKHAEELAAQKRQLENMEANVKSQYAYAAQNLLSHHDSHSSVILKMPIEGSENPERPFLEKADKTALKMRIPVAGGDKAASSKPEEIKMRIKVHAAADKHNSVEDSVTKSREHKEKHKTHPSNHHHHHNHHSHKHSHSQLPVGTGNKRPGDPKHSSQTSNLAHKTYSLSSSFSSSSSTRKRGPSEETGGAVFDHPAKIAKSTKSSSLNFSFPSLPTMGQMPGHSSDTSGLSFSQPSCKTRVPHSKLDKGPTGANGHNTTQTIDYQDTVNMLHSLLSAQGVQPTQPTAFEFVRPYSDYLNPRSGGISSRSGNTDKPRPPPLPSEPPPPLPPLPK
T2 sequence (P10635 whole entry): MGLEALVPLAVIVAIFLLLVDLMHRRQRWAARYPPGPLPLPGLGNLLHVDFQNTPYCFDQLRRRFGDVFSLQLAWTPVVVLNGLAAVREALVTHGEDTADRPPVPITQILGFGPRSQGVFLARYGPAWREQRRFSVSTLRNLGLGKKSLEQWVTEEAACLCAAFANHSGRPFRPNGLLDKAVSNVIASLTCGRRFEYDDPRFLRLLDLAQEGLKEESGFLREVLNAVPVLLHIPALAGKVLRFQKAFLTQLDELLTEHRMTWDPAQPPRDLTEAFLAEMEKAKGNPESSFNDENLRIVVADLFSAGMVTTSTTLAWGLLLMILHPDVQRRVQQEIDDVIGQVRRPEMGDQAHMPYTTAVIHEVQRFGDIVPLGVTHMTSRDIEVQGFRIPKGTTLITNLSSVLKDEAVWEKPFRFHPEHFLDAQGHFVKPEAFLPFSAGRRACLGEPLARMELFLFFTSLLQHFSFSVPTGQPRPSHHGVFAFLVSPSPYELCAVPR
T1 sequence (P11712 whole entry): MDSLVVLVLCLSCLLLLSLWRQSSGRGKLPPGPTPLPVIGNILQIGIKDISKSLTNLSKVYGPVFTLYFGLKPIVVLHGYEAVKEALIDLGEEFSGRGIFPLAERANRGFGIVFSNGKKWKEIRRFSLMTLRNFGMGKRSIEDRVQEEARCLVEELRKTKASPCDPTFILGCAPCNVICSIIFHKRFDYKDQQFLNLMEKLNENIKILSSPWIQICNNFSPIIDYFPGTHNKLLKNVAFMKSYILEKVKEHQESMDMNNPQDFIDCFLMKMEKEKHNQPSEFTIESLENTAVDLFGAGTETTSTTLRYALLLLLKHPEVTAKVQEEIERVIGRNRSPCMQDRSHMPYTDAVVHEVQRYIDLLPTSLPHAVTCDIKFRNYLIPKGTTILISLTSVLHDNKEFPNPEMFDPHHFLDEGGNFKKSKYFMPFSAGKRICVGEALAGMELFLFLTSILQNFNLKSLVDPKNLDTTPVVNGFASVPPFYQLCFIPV

SMILES	IC50 [1] [nM]	IC50 [4, 17] [nM]	Fold increase in potency [2]	IC50 [2] [nM]	half-life at 5 μM [6] [min]	IC50 [7] [µM]	IC50 [8] [µM]	IC50 [9] [µM]	IC50 at 5 min [10] [nM]	half-life at 5 μM [11] [min]	half-life at 5 μM [12] [min]	IC50 [13] [µM]	half-life at 5 μM [14] [min]	half-life at 5 μM [15] [min]	further results
CCC(Nc1nc(NCc2ccc(C(F)(F)F)nc2)c2ncn(C(C)C)c2n1)C(O)C(F)(F)F (centres unmarked) [[17], 1,1,1-Trifluoro-3-(9-isopropyl-6-((6-(trifluoromethyl)pyridin-3-yl)methylamino)-9H-2-ylamino)pentan-2-ol]															IC50 [3, 18]: 305 nM; IC50 [3, 19]: 431 nM; IC50 ([3]; Table 4, mean of two runs, read-out: CDK2A Mean): 368 nM; IC50 [5, 20]: 6120 nM; IC50 [5, 21]: 11200 nM; IC50 [5, 22]: 8680 nM; IC50 [4, 23]: 318 nM; IC50 [4, 24]: 307 nM; IC50 [4, 25]: 313 nM
CC[C@H](Nc1nc(NCc2ccc(C)nc2)c2ncn(C(C)C)c2n1)[C@@H](C)O [[2], 2R,3S-3-(9-isopropyl-6-((6-methylpyridin-3-yl)methylamino)-9H-purin-2-ylamino)pentan-2-ol]	3630	520	0.3	35000											IC50 [3]: 3250 nM
CC(C)n1cnc2c(NCc3cccnc3)nc(NCC(O)(C(F)(F)F)C(F)(F)F)nc21 [[18], 1,1,1,3,3,3-Hexafluoro-2-((9-isopropyl-6-(pyridine-3-ylmethylamino)-9H-purin-2-ylamino)methyl)propan-2-ol]															IC50 [3, 18]: 704 nM; IC50 [3, 19]: 1190 nM; IC50 [5, 20]: 5880 nM; IC50 [5, 21]: 6720 nM; IC50 [5, 22]: 6300 nM; IC50 [4, 23]: 336 nM; IC50 [4, 24]: 279 nM; IC50 [4, 25]: 308 nM
CC[C@H](Nc1nc(NCc2cccnc2)c2ncn(C(C)C)c2n1)[C@@H](C)O [[A3]]					> 45	> 25	> 25	1.88	> 25000	> 45	18	> 25	> 45	> 45	
CC[C@H](Nc1nc(NCc2cccnc2)c2ncn(C(C)C)c2n1)C(C)(C)O [[A2]]					> 45	> 25	> 25	0.48	> 25000	> 45	32.6	> 25	> 45	> 45	
CC[C@@H](Nc1nc(NCc2cccnc2)c2ncn(C(C)C)c2n1)C(C)(C)O [Compound [A1]]					> 45	> 25	> 25	1.63	> 25000	58.3	28.3	19.9	> 45	> 45	

Now from value to molecule, other results behind:

IC50 [1] [nM]	IC50 [4, 17] [nM]	SMILES	Fold increase in potency [2]	IC50 [2] [nM]	half-life at 5 μM [6] [min]	IC50 [7] [µM]	IC50 [8] [µM]	IC50 [9] [µM]	IC50 at 5 min [10] [nM]	half-life at 5 μM [11] [min]	half-life at 5 μM [12] [min]	IC50 [13] [µM]	half-life at 5 μM [14] [min]	half-life at 5 μM [15] [min]	further results
80	20	CC[C@H](Nc1nc(NCc2cccc(F)c2)c2ncn(C(C)C)c2n1)[C@@H](C)O [[4], 2R,3S-3-[6-(3-Fluorobenzylamino)-9-isopropyl-9H-purin-2-ylamino]-pentan-2-ol]	8.0	1500											IC50 [3, 16]: 120 nM
60	10	CC[C@H](Nc1nc(NCc2cccc(Cl)c2)c2ncn(C(C)C)c2n1)[C@@H](C)O [[3], 2R,3S-3-(6-(3-Chlorobenzylamino)-9-isopropyl-9H-purin-2-ylamino)pentan-2-ol]	8.0	1500											IC50 [3, 16]: 100 nM
